This is an account of results in patent US8877731B2, “Azido nucleosides and nucleotide analogs” (Alios Biopharma, Inc., priority 2010, dated 2014).

In general, inhibition refers to the change of the read-out against control, counted positive when it falls. The EC50 is the concentration that produces a half-maximal response.

Where two headings read alike, the source gives them in different places.

Common to all, as to type: cell-based
The subject of test [1] is Influenza A/WSN/33 virus. In words: Influenza antiviral assay (real-time PCR). The settings on record: A549 cells, 24 hour pre-incubation, 72 hours, read-out: Percent Inhibition. A general note: Quantitative PCR measures a nucleic acid by following its amplification.
The subject of test [2] is RSV Long strain. Description: RSV CPE reduction assay. The conditions noted are these: human respiratory syncytial virus. As for the experimental part:
CPE reduction assays were performed as described by Sidwell and Huffman et al., Appl Microbiol. (1971) 22(5):797-801 with slight modifications. HEp-2 cells (ATCC) at a concentration of 6000 cell/well were infected with RSV Long strain (ATCC) at a multiplicity of infection (m.o.i.) of 0.01, and each of the test compounds were provided to duplicate wells at final concentrations starting from 100 μM using ⅓ stepwise dilutions. For each compound, two wells were set aside as uninfected, untreated cell controls (CC), and two wells per test compound received virus only as a control for virus replication (VC). […] At the end of the incubation, 20 μl of cell counting kit-8 reagent (CCK-8, Dojindo Molecular Technologies, Inc.) were added to each well. After 4 hour incubation, the absorbance was measured in each well according to manufacturer's instruction, and the 50% effective concentration (EC50) was calculated by using regression analysis, based on the mean O.D. at each concentration of compound.
(§1) Compounds of Formula (I) and Formula (II) are active in the assay as noted in Tables 2 and 3, where ‘A’ indicates an EC50<1 μM, ‘B’ indicates an EC50 of >1 μM and <10 μM, ‘C’ indicates an EC50>10 μM and <100 μM, and ‘D’ indicates an EC50>100 μM.

The subject of test [3] is RSV A2. Description: RSV RT-PCR based assay. The settings on record: human respiratory syncytial virus. As for the experimental part: RT-PCR based assays were performed in HEp-2 cells (ATCC: CCL-23) at a concentration of 20000 cell/well were plated in 96 well plates and incubated overnight. Each of the test compounds were ⅓ serially diluted and dosed to HEp-2 cells in duplicates. The highest final concentration for each compound was 100 uM. After 24 hour compound pre-incubation, RSV A2 (ATCC: VR-1540) at MOI of 0.1 was added. Two wells per compound were set aside as uninfected, untreated cell controls (CC), and four wells per test compound received virus only as a control for virus replication (VC). The assay was stopped 4 days after virus infection and conditioned media was removed for viral RNA isolation. The quantities of the RSV virus were measured by real-time PCR using a set of RSV specific primers and probe. The data was analyzed with Prism software with EC50 defined as drug concentration that reduced the viral load 50% from the viral control (VC).
as §1

[4] abbreviates: 144 h, CPE assay, HEp-2 cells infected with RSV Long strain, m.o.i. 0.01, 6 days, CCK-8 readout, read-out: EC50.
Where [5] appears, read: RT-PCR assay, HEp-2 cells, 24 hour compound pre-incubation, RSV A2 at MOI 0.1, 4 days after infection, viral load, read-out: EC50.

As for `[N-]=[N+]=N[C@]1(CO)O[C@@H](n2cnc3c(=O)[nH]c(N)nc32)[C@H](O)[C@@H]1O` [Compound 10, 4′-azidoguanosine], the inhibition at 30 µM in test [1] stood at 83.3%. Besides, the EC50 in test [2] (setting [4]) and in test [3] (setting [5]) was under 1 µM each time.

As for `[N-]=[N+]=N[C@]1(CO)O[C@@H](n2cnc3c(=O)[nH]c(N)nc32)C(F)(F)[C@@H]1O` [Compound 30, 4′-azido-2′-deoxy-2′,2′-difluoroguanosine], the inhibition at 30 µM in test [1] was 99.9%. Also, the EC50 in test [3] (setting [5]) was over 100 µM.

For the compound `[N-]=[N+]=N[C@]1(CO)O[C@@H](n2cnc3c(=O)[nH]c(N)nc32)[C@H](F)[C@@H]1O` [Compound 27, 4′-azido-2′-deoxy-2′-fluoroguanosine], the inhibition at 30 µM in test [1] came out at 91%. For the same compound, the EC50 in test [2] (setting [4]) and in test [3] (setting [5]) was under 1 µM in each case.

In the case of `[N-]=[N+]=N[C@]1(CO)O[C@@H](n2cnc3nc(N)[nH]c(=O)c32)[C@H](O)[C@@H]1O` [Compound 25, 2-amino-7-(4-azido-β-D-ribofuranos-1-yl)-1H-purin-6(7H)-one], the EC50 in test [2] (setting [4]) and in test [3] (setting [5]) was over 100 µM throughout.

As for `C[C@]1(F)[C@H](n2ccc(N)nc2=O)O[C@@](CO)(N=[N+]=[N-])[C@H]1O` [Compound 38, 4′-azido-2′-deoxy-2′-α-fluoro-2′-β-methylcytidine], the EC50 in test [2] (setting [4]) and in test [3] (setting [5]) was over 100 µM throughout.

`CC(C)OC(=O)[C@H](C)NP(=O)(OC[C@@]1(N=[N+]=[N-])O[C@@H](n2ccc(=O)[nH]c2=O)[C@@H](O)[C@@H]1O)Oc1ccccc1` (stereo partly drawn) [Compound 35, 4′-azidoarabinouridine 5′-(O-phenyl-N—(S)-1-(isopropoxycarbonyl)ethyl)phosphoramidate]: the half-maximal effective concentration (EC50) in test [2] (setting [4]) and in test [3] (setting [5]) was under 1 µM throughout.

In the case of `COP1(=S)OC[C@@]2(N=[N+]=[N-])O[C@@H](n3ccc(=O)[nH]c3=O)[C@H](F)[C@@H]2O1` (stereo partly shown) [Compound 41, 4′-azido-2′-deoxy-2′-fluorouridine 3′,5′-cyclic thiophosphoric acid methyl ester], the EC50 in test [2] (HEp-2, 144 h) is over 100 µM; in test [3] (HEp-2), over 100 µM.

As to `[N-]=[N+]=N[C@]1(CO)O[C@@H](n2cnc3c(N)ncnc32)[C@H](F)[C@@H]1O` [Compound 28, 4′-azido-2′-deoxy-2′-fluoroadenosine], the inhibition at 30 µM in test [1] is 94.6%. Also, the EC50 in test [2] (setting [4]) and in test [3] (setting [5]) was over 100 µM each time.

For the compound `[N-]=[N+]=N[C@]1(CO)O[C@@H](n2ccc(N)nc2=O)[C@H](F)[C@@H]1O` [Compound 2, 4′-azido-2′-deoxy-2′-fluorocytidine], in test [1], the inhibition at 30 µM stood at 99.8%. For the same compound, the EC50 in test [2] (setting [4]) and in test [3] (setting [5]) was under 1 µM each time.

On to `[N-]=[N+]=N[C@]1(CO)O[C@@H](n2ccc(N)nc2=O)C(F)(F)[C@@H]1O` [Compound 1, 4′-azido-2′-deoxy-2′,2′-difluorocytidine], for which the EC50 in test [2] (setting [4]) and in test [3] (setting [5]) was under 1 µM each time.

`C[C@@]1(n2ccc(N)nc2=O)O[C@@](CO)(N=[N+]=[N-])[C@@H](O)[C@H]1O` [Compound 50, 4′-azido-1′-methylcytidine]: the inhibition at 30 µM in test [1] is 90.9%. Besides, the 50% effective concentration (EC50) in test [2] (setting [4]) and in test [3] (setting [5]) was over 100 µM throughout.

As for `CC(C)OC(=O)[C@H](C)NP(=O)(OC[C@@]1(N=[N+]=[N-])O[C@@H](n2ccc(=O)[nH]c2=O)[C@@H](F)[C@@H]1O)Oc1ccccc1` (stereo partly drawn) [Compound 26, 4′-azido-2′-deoxy-2′-fluorouarabinoridine 5′-(O-phenyl-N—(S)-1-(isopropoxycarbonyl)ethyl)phosphoramidate], the EC50 in test [2] (setting [4]) and in test [3] (setting [5]) was over 100 µM in each case.

With `CC(C)OC(=O)[C@H](C)NP(=O)(OC[C@@]1(N=[N+]=[N-])O[C@@H](n2cnc3c(N)ncnc32)[C@H](F)[C@@H]1O)Oc1ccccc1` (stereo partly drawn) [Compound 37, 4′-azido-2′-deoxy-2′-fluoroadenosine 5′-(O-phenyl-N—(S)-1-(isopropoxycarbonyl)ethyl)phosphoramidate], the EC50 in test [2] (setting [4]) and in test [3] (setting [5]) was 1 to 10 µM throughout.

Consider `CC(C)OC(=O)[C@H](C)NP(=O)(OC[C@@]1(N=[N+]=[N-])O[C@@H](n2ccc(=O)[nH]c2=O)[C@H](F)[C@@H]1O)Oc1ccccc1` (stereo partly drawn) [Compound 24, 4′-azido-2′-deoxy-2′-fluorouridine 5′-(O-phenyl-N—(S)-1-(isopropoxycarbonyl)ethyl)phosphoramidate], for which the EC50 in test [2] (setting [4]) and in test [3] (setting [5]) was over 100 µM throughout.

On to `CC(C)OC(=O)[C@H](C)NP(=S)(OC[C@@]1(N=[N+]=[N-])O[C@@H](n2ccc(=O)[nH]c2=O)[C@H](O)[C@@H]1O)Oc1ccccc1` (stereo partly drawn) [Compound 15, 4′-azidouridine 5′-(O-phenyl-N—(S)-1-(isopropoxycarbonyl)eth-1-yl)thiophosphoramidate], for which the EC50 in test [2] (HEp-2, 144 h) was under 1 µM; in test [3] (HEp-2), under 1 µM.

On to `[N-]=[N+]=N[C@]1(CO)O[C@@H](n2ccc(=O)[nH]c2=O)[C@@H](F)[C@@H]1O` [Compound 20, 4′-azido-2′-deoxy-2′-fluoroarabinouridine], for which the EC50 in test [2] (setting [4]) and in test [3] (setting [5]) was over 100 µM throughout.

For `[N-]=[N+]=N[C@]1(CO)O[C@@H](n2ccc(N)nc2=O)[C@@H](O)[C@@H]1O` [Compound 11, 4′-azidoarabinocytidine], the EC50 in test [2] (setting [4]) and in test [3] (setting [5]) was under 1 µM in each case.

On to `CC(C)OC(=O)[C@H](C)NP(=O)(OC[C@@]1(N=[N+]=[N-])O[C@@H](n2ccc(=O)[nH]c2=O)[C@@H](C)[C@@H]1O)Oc1ccccc1` (stereo partly drawn) [Compound 36, 4′-azido-2′-deoxy-2′-methylarabinouridine 5′-(O-phenyl-N—(S)-1-(isopropoxycarbonyl)ethyl)phosphoramidate], for which the EC50 in test [2] (setting [4]) and in test [3] (setting [5]) was over 100 µM in each case.

As for `CC(C)OC(=O)[C@H](C)NP(=O)(N[C@@H](C)C(=O)OC(C)C)OC[C@@]1(N=[N+]=[N-])O[C@@H](n2ccc(=O)[nH]c2=O)[C@H](O)[C@@H]1O` [Compound 44, 4′-azidouridine 5′-(N,N′-bis((S)-1-(isopropoxycarbonyl)ethyl))phosphorodiamidate], the EC50 in test [2] (setting [4]) and in test [3] (setting [5]) was over 100 µM in each case.
